Test results reported in patent publication US6054114A, “Organometallic ligands for the localization and quantification of amyloid in vivo and in vitro” (priority 1997, dated 2000).
Where two headings read alike, the source gives them in different places.

Experiments:
β1-40 amyloid fibrils = target: T1, β1-40 amyloid fibrils (Homo sapiens, UniProt P05067); assay: Competitive displacement of labeled complexes 3 or 6 from β1-40 fibrils; assay type: binding; details: 25° C., pH 7.4, mean (±S.D.)
T1 construct: Aggregated β1-40 peptides (Bachem, Torrance, Calif); purchased Bachem, Torrance, Calif
Protocol: Dissociation constants, IC50 and inhibition constants were determined. Aggregated β1-40 peptides (Bachem, Torrance, Calif.; peptide concentrations were determined by amino acid analysis) were prepared by stirring supersaturated solutions of peptide (100 μM) in the standard buffer (10 mM NaH2 PO4, pH 7.4) at room temperature for at least 72 h and remained stirring while aliquots were taken. […] The solution was briefly vortexed and allowed to equilibrate at room temperature for 2 h. The solution was centrifuged for 1 min at 14,000 rpm (16,000 g) and the amount of the labeled ligand bound ([B]) to fibrils was obtained by measuring the radioactivity of the pellets or calculated using the equation [B] =[T] - [F] where [F] is the concentration of the labeled ligand in the supernatant (i.e., amount unbound or free) and [T] is the total amount of the labeled ligand added. A Scatchard plot was used to obtain [B]max (apparent maximum amount of the labeled ligand bound to fibrils) and Kd. (Freifelder, D., Physical Biochemistry: Applications to Biochemistry and Molecular Biology, 2nd ed.; W. H. Freeman & Co., N. Y. Chapter 10, p. 654 (1982)). The [B]max was based on total protein concentration. […] The IC50 value was used to calculate the inhibition constant Ki. (Cheng et al., Biochem. Pharmacol. 22:3099-3108 (1973)).
The relative affinities (Ki 's) of the free bipyridyl ligands were determined by displacement of complexes 3 or 6 (see Table 1). […] The stoichiometry of saturation, as estimated by Scatchard analysis of the binding curves, differed slightly, with 2.7 moles of 3 and 1.6 moles of 6 bound per mole of β1-40.

Peptide solubility = assay type: physicochemical; details: 10 mm nah2po4 buffer, pH 7.4
[1] = [Tc(CNtBu)4 (bpcg)]^+ (6) as labeled ligand, read-out: Inhibition constant (Ki) for β1-40 fibrils
[2] = [Tc(CNtBu)4 (bpcr)]^+ (3) as labeled ligand, read-out: Inhibition constant (Ki) for β1-40 fibrils

T1 sequence (P05067 672-711 limits assumed): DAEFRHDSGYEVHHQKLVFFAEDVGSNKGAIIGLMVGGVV

| Molecule | Ki (β1-40 amyloid fibrils; Inhibition constant (Ki) for β1-40 fibrils, [Tc(CNtBu)4 (bpcg)]^+ (6) as labeled ligand) [µM] | Ki (β1-40 amyloid fibrils; Inhibition constant (Ki) for β1-40 fibrils, [Tc(CNtBu)4 (bpcr)]^+ (3) as labeled ligand) [µM] | Ki (β1-40 amyloid fibrils; [1]) [µM] | Ki (β1-40 amyloid fibrils; [2]) [µM] | solubility (Peptide solubility) |
| --- | --- | --- | --- | --- | --- |
| Nc1c(/N=N/c2ccc(-c3ccc(/N=N/c4cc(S(=O)(=O)O)c5ccccc5c4N)cc3)cc2)cc(S(=O)(=O)O)c2ccccc12 [Congo Red (1), Congo Red, reference compound] | 0.56 | 0.46 | – | – | – |
| Nc1c(N=Nc2ccc(-c3ccc(N=Nc4cc(S(=O)(=O)O)c5ccccc5c4N)cn3)nc2)cc(S(=O)(=O)O)c2ccccc12 [compound 2, Bipyridyl-Congo Red] | – | – | 0.48 | 0.51 | – |
| O=C(O)c1cc(N=Nc2ccc(-c3ccc(N=Nc4ccc(O)c(C(=O)O)c4)cn3)nc2)ccc1O [compound 5, bipyridal-Chrysamine G] | – | – | 0.42 | 0.76 | – |
| β1-40: β1-40 amyloid peptide (Bachem), C-terminally truncated relative of Aβ1-42 | – | – | – | – | ca. 1 μM |
